Entries after “also recorded” stand apart in the source; their conditions may differ.
system: cancer cells; assay: List of active compounds: types of cancers and precancers active against; assay type: cell-based
Description: As discussed, the adamantyl retinoid derivatives according to the invention which induce apoptosis are useful for treating many different types of cancers.

How did the “Types of Cancers and Precancers Active Against” value (“Types” below) turn out when `COc1ccc(-c2ccc3cc(C(=O)O)ccc3c2)cc1C12CC3CC(C)(CC(C)(C3)C1)C2` [Compound 42, 6-[3-(3,5-dimethyl-1-adamantyl)-4-methoxyphenyl]-2-naphthoic acid] was run?
The value was “skin”.

How did the “Types” value turn out when `O=C(O)c1ccc(OC(=O)c2ccc(OCC(O)CO)c(C34CC5CC(CC(C5)C3)C4)c2)cc1` (centres unmarked) [Compound 33, 4-carboxyphenyl ester of 3-(1-adamantyl)-4-(2,3-dihydroxyproproxy)benzoic acid] was run?
Its value is “leukemia, skin”.

With `COC(=O)c1cc(O)c2cc(-c3ccc(OC)c(C45CC6CC(CC(C6)C4)C5)c3)ccc2c1C` [Compound 18, 1-methyl-4-hydroxy-6-[3-(1-adamantyl)-4-methoxyphenyl]-2-naphthoic acid methyl ester] as the molecule, how does the “Types” value read?
Its value is “lymphoma, liver”.

How did the “Types” value turn out when `COc1ccc(C(=O)C#Cc2ccc(C(=O)O)cc2)cc1C12CC3CC(CC(C3)C1)C2` [Compound 8, 4-{3-oxo-3-[3-(1-adamantyl)-4-methoxyphenyl]-1-propynyl}benzoic acid] was run?
Its value is “brain, breast, leukemia, lung,; also recorded: lymphoma, skin, liver”.

How did the “Types” value turn out when `NC(=O)c1ccc(-c2ccc3cc(C(=O)O)ccc3c2)cc1C12CC3CC(CC(C3)C1)C2` [Compound 24, 6-[3-(1-adamantyl)-4-aminocarbonylphenyl]-2-naphthoic acid] was run?
The value was “leukemia, lymphoma”.

With `COc1ccc(-c2nc3ccc(C)cc3[nH]2)cc1C12CC3CC(CC(C3)C1)C2` [Compound 10, 2-[3-(1-adamantyl)-4-methoxyphenyl]-5-methylbenzimidazole] as the molecule, how does the “Types” value read?
Its value is “leukemia, lymphoma, myeloma”.

`COCCOCOc1ccc(C(=O)/C=C/c2ccc(C(=O)O)cc2)cc1C12CC3CC(CC(C3)C1)C2` [Compound 29, (E) 4-{3-oxo-3-[4-(2-methoxyethoxymethoxy)-3-(1-adamantyl)phenyl]prop-1-enyl}benzoic acid] was tested. Which “Types” value did it give?
Its value is “brain, leukemia, lung,; also recorded: lymphoma, prostate”.

For `O=C(O)c1ccc2cc(-c3ccc(OCCCO)c(C45CC6CC(CC(C6)C4)C5)c3)ccc2c1` [Compound 23, 6-[3-(1-adamantyl)-4-(3-hydroxypropoxy)phenyl]-2-naphthoic acid], which “Types” value is on record?
The value was “breast, leukemia, lymphoma”.

For `CCc1ccc(-c2ccc3cc(C(=O)O)ccc3c2)cc1C12CC3CC(CC(C3)C1)C2` [Compound 22, 6-[3-(1-adamantyl)-4-ethylphenyl]-2-naphthoic acid], which “Types” value is on record?
Its value is “breast, leukemia, myeloma”.

`O=C(O)c1ccc2cc(-c3cc4c(c(C56CC7CC(CC(C7)O5)C6)c3)OCO4)ccc2c1` [Compound 38, 6-[3-(2-oxa-1-adamantyl)-4,5-methylenedioxyphenyl]-2-naphthoic acid] was tested. Which “Types” value did it give?
Its value is “leukemia, skin”.

`O=C(c1ccc2cc(-c3cc4c(c(C56CC7CC(CC(C7)C5)C6)c3)OCO4)ccc2c1)N1CCNCC1` [Compound 46, N-{6-[3-(1-adamantyl)-4,5-methylenedioxy]-2-naphthalenecarboxoyl}piperazide] was tested. Which “Types” value did it give?
The value was “prostate, neuroblastoma,; also recorded: hepatoma”.

Which “Types” value does the source give for `NCCNC(=O)c1ccc2cc(-c3cc4c(c(C56CC7CC(CC(C7)C5)C6)c3)OCO4)ccc2c1` [Compound 48, N-(2-aminoethyl)-{6-[3-(1-adamantyl)-4,5-methylenedioxyphenyl]-2-naphthalenecarboxamide}] here?
The value was “breast, hepatoma, skin”.

Which “Types” value does the source give for `O=C(c1ccc2cc(-c3cc4c(c(C56CC7CC(CC(C7)C5)C6)c3)OCO4)ccc2c1)N1CCCNCC1` [Compound 47, N-{6-[3-(1-adamantyl)-4,5-methylenedioxy]-2-naphthalenecarboxoyl}homopiperazide] here?
Its value is “bladder, neuroblastoma, cervix, and skin”.

Which “Types” value does the source give for `OCc1ccc2cc(-c3ccc(O)c(C45CC6CC(CC(C6)C4)C5)c3)ccc2c1` [Compound 14, 6-[3-(1-adamantyl)-4-hydroxyphenyl]-2-hydroxymethylnaphthalene] here?
Its value is “bladder, kidney, skin”.

`COc1ccc(C(=O)Nc2ccc(C(=O)N3CCOCC3)cc2)cc1C12CC3CC(CC(C3)C1)C2` [Compound 19, N-{4-[N-(3-(1-adamantyl)-4-methoxybenzoyl)amido]benzoyl}morpholide] was tested. Which “Types” value did it give?
Its value is “kidney, myeloma, prostate, skin”.

`COc1ccc(-c2ccc3cc(C(=O)NCCN)ccc3c2)cc1C12CC3CC(CC(C3)C1)C2` [Compound 45, N-(2-aminoethyl)-{6-[3-(1-adamantyl)-4-methoxyphenyl]-2-naphthalenecarboxamide]] was tested. Which “Types” value did it give?
The value was “bladder, kidney, prostate,; also recorded: leukemia, breast, lung, neuro-; also recorded: blastoma, hepatoma, pancreas,; also recorded: cervix skin”.

With `CC12CC3CC(C1)CC(c1cc(-c4ccc5cc(C(=O)O)ccc5c4)ccc1O)(C3)C2` [Compound 49, 6-[3-(3-methyl-1-adamantyl)-4-hydroxyphenyl]-2-naphthalenecarboxylic acid] as the molecule, how does the “Types” value read?
Its value is “breast, neuroblastoma, leukemia”.

How did the “Types” value turn out when `Cc1cc(O)c(C23CC4CC(CC(C4)C2)C3)cc1-c1ccc2cc(C(=O)O)ccc2c1` [Compound 12, 6-[3-(1-adamantyl)-4-hydroxy-6-methylphenyl]-2-naphthoic acid] was run?
Its value is “head and neck, leukemia,; also recorded: pancreatic”.

With `COC(=O)c1ccc(C(=O)Nc2ccc(C(=O)O)cc2)cc1C12CC3CC(CC(C3)C1)C2` [Compound 35, N-4-carboxyphenyl 3-(1-adamantyl)-4-(methoxycarbonyl)benzamide] as the molecule, how does the “Types” value read?
Its value is “leukemia, lymphoma, myeloma”.

Which “Types” value does the source give for `O=C(O)c1ccc2cc(-c3ccc(OCC(O)CO)c(C45CC6CC(CC(C6)C4)C5)c3)ccc2c1` (centres unmarked) [Compound 34, 6-[3-(1-adamantyl)-4-(2,3-dihydroxypropoxy)phenyl]-2-naphthoic acid] here?
Its value is “leukemia, skin”.

`COc1ccc(C(O)COc2ccc(C(=O)O)c(O)c2)cc1C12CC3CC(CC(C3)C1)C2` (centres unmarked) [Compound 26, 2-hydroxy-4-{2-[3-(1-adamantyl)-4-methoxyphenyl]-2-hydroxyethoxy}benzoic acid] was tested. Which “Types” value did it give?
Its value is “lymphoma”.

`COc1cc(C)c(-c2ccc3cc(C(=O)O)ccc3c2)cc1C12CC3CC(CC(C3)C1)C2` [Compound 13, 6-[3-(1-adamantyl)-4-methoxy-6-methylphenyl]-2-naphthoic acid] was tested. Which “Types” value did it give?
Its value is “brain, head and neck, leukemia,; also recorded: pancreatic”.

Which “Types” value does the source give for `COc1cc(C(=O)/C=C/c2ccc(C(=O)O)cc2)ccc1C12CC3CC(CC(C3)C1)C2` [Compound 28, (E) 4-{3-oxo-3-[3-methoxy-4-(1-adamantyl)phenyl]prop-1-enyl}benzoic acid] here?
The value was “leukemia”.

How did the “Types” value turn out when `COc1ccc(-c2ccc3cc(C(=O)N4CCCNCC4)ccc3c2)cc1C12CC3CC(CC(C3)C1)C2` [Compound 44, N-{6-[3-(1-adamantyl)-4-methoxyphenyl]-2-naphthalenecarboxoyl}homopiperazide] was run?
Its value is “bladder, kidney, epidermal,; also recorded: leukemia lung, neuroblastoma,; also recorded: hepatoma, cervix, skin”.

For `COC(=O)c1ccc2cc(-c3ccc(O)c(C45CC6CC(CC(C6)C4)C5)c3)ccc2c1` [Compound 17, 6-[3-(1-adamantyl)-4-hydroxyphenyl]-2-naphthoic acid methyl ester], which “Types” value is on record?
Its value is “leukemia”.

`COc1ccc(-c2ccc3cc(C(=O)O)ccc3c2)cc1C12CC3CC(CC(C)(C3)O1)C2` [Compound 40, 6-[3-(2-oxa-3-methyl-1-adamantyl)-4-methoxyphenyl]-2-naphthoic acid] was tested. Which “Types” value did it give?
The value was “bladder, breast, kidney,; also recorded: leukemia, lung, lymphoma,; also recorded: ovarian, prostate, skin”.

With `COc1ccc(C(=O)Oc2ccc(C(=O)O)cc2F)cc1C12CC3CC(CC(C3)C1)C2` [Compound 21, 4-hydroxycarbonyl-2-fluorophenyl ester of 3-(1-adamantyl)-4-methoxybenzoic acid] as the molecule, how does the “Types” value read?
The value was “leukemia”.

`O=C(O)c1ccc2cc(-c3ccc(OC[C@@H](O)CO)c(C45CC6CC(CC(C6)C4)C5)c3)ccc2c1` [Compound 27, (S)-6-[3-(1-adamantyl)-4-(2S,3-dihydroxypropoxy)phenyl]-2-naphthoic acid] was tested. Which “Types” value did it give?
The value was “leukemia”.

`O=C(O)c1ccc2cc(-c3cc(O)c(O)c(C45CC6CC(CC(C6)C4)C5)c3)ccc2c1` [Compound 36, 6-[3-(1-adamantyl)-4,5-dihydroxyphenyl]-2-naphthoic acid] was tested. Which “Types” value did it give?
Its value is “brain, head and neck, leukemia,; also recorded: lymphoma, myeloma, pancreatic”.

Which “Types” value does the source give for `CCC1OC(=O)C(C)C(OC2CC(C)(OC)C(OC(=O)c3ccc4cc(-c5ccc(OC)c(C67CC8CC(CC(C8)C6)C7)c5)ccc4c3)C(C)O2)C(C)C(OC2OC(C)CC(N(C)C)C2O)C(C)(O)CC(C)C(=O)C(C)C(O)C1(C)O` (centres unmarked) [Compound 32, 4″-Erythromycin A ester of 6-[3-(1-adamantyl)-4-methoxyphenyl]2-naphthoic acid] here?
The value was “leukemia, lymphoma”.

How did the “Types” value turn out when `COc1cc(NC(=O)c2ccc(OC)c(C34CC5CC(CC(C5)C3)C4)c2)ccc1C(=O)O` [Compound 9, 4-[N-(3-(1-adamantyl)-4-methoxybenzoyl)amido]2-methoxybenzoic acid] was run?
The value was “head and neck, kidney, ovarian, and skin”.

Which “Types” value does the source give for `O=C(O)c1ccc2cc(-c3ccc(C(O)CO)c(C45CC6CC(CC(C6)C4)C5)c3)ccc2c1` (centres unmarked) [Compound 11, 6-[3-(1-adamantyl)-4-(1,2-dihydroxyethyl)phenyl]-2-naphthoic acid] here?
The value was “brain, breast, leukemia,; also recorded: pancreatic, skin”.

Which “Types” value does the source give for `O=C(CC(=O)C12CC3CC(CC(C3)C1)C2)Nc1ccc(C(=O)O)cc1` [Compound 25, N-(4-carboxyphenyl)-3-(1-adamantyl)-3-oxopropionamide] here?
Its value is “lymphoma”.

With `CC12CC3CC(C1)CC(c1cc(-c4ccc5cc(C(=O)O)ccc5c4)cc4c1OCO4)(C3)C2` [Compound 37, 6-[3-(3-methyl-1-adamantyl)-4,5-methylenedioxyphenyl]-2-naphthoic acid] as the molecule, how does the “Types” value read?
Its value is “kidney, leukemia, lung,; also recorded: lymphoma, skin”.

With `COc1ccc(C(=N)Nc2ccc(C(=O)O)cc2)cc1C12CC3CC(CC(C3)C1)C2` [Compound 31, 3-(1-adamantyl)-4-methoxy-N-(4-carboxyphenyl)benzamidine] as the molecule, how does the “Types” value read?
Its value is “leukemia”.
